Patent US20260297092A1, “PYRAZOLOPYRIMIDINE DERIVATIVES AS INHIBITORS OF NLRP3” (Takeda Pharmaceutical Company Limited, priority 2023, published 2026)

How the values were obtained:
[1] = test system: TNF-α (NF-κB pathway, THP-1 cells); experiment: TNF-α Assay (IC50); type: cell-based, human; settings: 600 ng/mL LPS, 3 hours
Method in brief: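 Supernatant TNF-α quantified by ELISA after 3 h stimulation with 600 ng/mL LPS at 37 °C, following 30 min compound preincubation. Cells: IFN-differentiated (25 ng/mL, 24 h) THP-1 macrophages, 40,000/well, serum-free. IC50 by sigmoidal fit of % inhibition, with TPCA-1 as 100% control.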

[2] = test system: NLRP3 inflammasome (IL-1β production in THP-1 cells); experiment: IL-1β TR-FRET Assay (percentage of inhibition at 300 nM, 6 μM or 10 μM); type: cell-based, human; settings: LPS priming, ATP activation; for inhibition at 6 µM: Homo sapiens, THP-1, 6 μM, read-out: IL-1β inhibitory rate at 6 μM (%)
Method in brief: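 Percent inhibition of IL-1β used DMSO wells as 0% and 3 μM MCC-950 wells as full inhibition, with supernatant read by HTRF. Beforehand, IFN-γ-differentiated (25 ng/mL, 24 h), LPS-primed (50 ng/mL, 24 h) THP-1 cells received compound 30 min before inflammasome activation by 20 mM ATP for 2 h.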

IC50 ([1]; Homo sapiens) [µM]	IC50 [1] [µM]	SMILES	inhibition at 6 µM [2] [%]	IL-1β inhibitory rate at 6 μM (%) ([2]; 6 μM)
> 30		COc1nc2nn(-c3c(C)cc(C4CC4)cc3OC(F)F)cc2c(=O)[nH]1 [Example 252, 2-[4-cyclopropyl-2-(difluoromethoxy)-6-methylphenyl]-6-methoxy-2,5-dihydro-4H-pyrazolo [3,4-d]pyrimidin-4-one]	103	
> 30		CCn1ncc(-c2nc3nn(-c4c(C)cc(C5CC5)cc4C)cc3c(=O)[nH]2)n1 [Example 257, 2-(4-cyclopropyl-2,6-dimethylphenyl)-6-(2-ethyl-2H-1,2,3-triazol-4-yl)-2,5-dihydro-4H-pyrazolo[3,4-d]pyrimidin-4-one]	99	
> 30		Cc1cc(C2CC2)cc(C)c1-n1cc2c(=O)[nH]c(-c3cnn(C)n3)nc2n1 [Example 258, 2-(4-cyclopropyl-2,6-dimethylphenyl)-6-(2-methyl-2H-1,2,3-triazol-4-yl)-2,5-dihydro-4H-pyrazolo[3,4-d]pyrimidin-4-one]	100	
> 30		Cc1cc(C2CC2)cc(C)c1-n1cc2c(=O)[nH]c([C@@]3(F)CCCOC3)nc2n1 [Example 260, 2-(4-cyclopropyl-2,6-dimethylphenyl)-6-(3-fluorooxan-3-yl)-2,5-dihydro-4H-pyrazolo[3,4-d]pyrimidin-4-one]	96	
> 30		Cc1cc(C2CC2)cc(C)c1-n1cc2c(=O)[nH]c(C3CC(F)(F)C3)nc2n1 [Example 262, 2-(4-cyclopropyl-2,6-dimethylphenyl)-6-(3,3-difluorocyclobutyl)-2,5-dihydro-4H-pyrazolo[3,4-d]pyrimidin-4-one]	100	
> 30		Cc1cc(C2(F)CC2)cc(C)c1-n1cc2c(=O)[nH]c(COC(F)F)nc2n1 [Example 263, 6-[(difluoromethoxy)methyl]-2-[4-(1-fluorocyclopropyl)-2,6-dimethylphenyl]-2,5-dihydro-4H-pyrazolo[3,4-d]pyrimidin-4-one]	104	
> 30		COC1(c2nc3nn(-c4c(C)cc(C5CC5)cc4C)cc3c(=O)[nH]2)CC1 [Example 266, 2-(4-cyclopropyl-2,6-dimethylphenyl)-6-(1-methoxycyclopropyl)-2,5-dihydro-4H-pyrazolo[3,4-d]pyrimidin-4-one]	98	
> 30		CCOc1nc2nn(-c3c(C(F)(F)F)cc(C4CC4)nc3C)cc2c(=O)[nH]1 [Example 269, 2-[6-cyclopropyl-2-methyl-4-(trifluoromethyl)pyridin-3-yl]-6-ethoxy-2,5-dihydro-4H-pyrazolo[3,4-d]pyrimidin-4-one]	100	
> 30		Cc1nc(-c2nc3nn(-c4c(C)cc(C5CC5)cc4C)cc3c(=O)[nH]2)co1 [Example 272, 2-(4-cyclopropyl-2,6-dimethylphenyl)-6-(2-methyl-1,3-oxazol-4-yl)-2,5-dihydro-4H-pyrazolo[3,4-d]pyrimidin-4-one]	95	
> 30		Cc1ncc(-c2nc3nn(-c4c(C)cc(C5CC5)cc4C)cc3c(=O)[nH]2)o1 [Example 273, 2-(4-cyclopropyl-2,6-dimethylphenyl)-6-(2-methyl-1,3-oxazol-5-yl)-2,5-dihydro-4H-pyrazolo[3,4-d]pyrimidin-4-one]	99	
> 30		Cc1cc(-c2nc3nn(-c4c(C)cc(C5CC5)cc4C)cc3c(=O)[nH]2)no1 [Example 274, 2-(4-cyclopropyl-2,6-dimethylphenyl)-6-(5-methyl-1,2-oxazol-3-yl)-2,5-dihydro-4H-pyrazolo[3,4-d]pyrimidin-4-one]	102	
2.26		Cc1cc(-c2nc3nn(-c4c(C)cc(C5CC5)cc4C)cc3c(=O)[nH]2)on1 [Example 275, 2-(4-cyclopropyl-2,6-dimethylphenyl)-6-(3-methyl-1,2-oxazol-5-yl)-2,5-dihydro-4H-pyrazolo[3,4-d]pyrimidin-4-one]	101	
> 30		COC1(c2nc3nn(-c4c(C)cc(C5CC5)cc4C)cc3c(=O)[nH]2)CCC1 [Example 277, 2-(4-cyclopropyl-2,6-dimethylphenyl)-6-(1-methoxycyclobutyl)-2,5-dihydro-4H-pyrazolo[3,4-d]pyrimidin-4-one]	96	
> 30		COCCn1ccc(-c2nc3nn(-c4c(C)cc(C5CC5)cc4C)cc3c(=O)[nH]2)n1 [Example 278, 2-(4-cyclopropyl-2,6-dimethylphenyl)-6-[1-(2-methoxyethyl)-1H-pyrazol-3-yl]-2,5-dihydro-4H-pyrazolo[3,4-d]pyrimidin-4-one]	95	
> 30		Cc1cc(C2CC2)cc(C(F)F)c1-n1cc2c(=O)[nH]c(COC(F)F)nc2n1 [Example 283, 2-[4-cyclopropyl-2-(difluoromethyl)-6-methylphenyl]-6-[(difluoromethoxy)methyl]-2,5-dihydro-4H-pyrazolo[3,4-d]pyrimidin-4-one]	99	
> 30		COc1nc2nn(-c3c(C)cc(OC(F)F)cc3C(F)F)cc2c(=O)[nH]1 [Example 284, 2-[4-(difluoromethoxy)-2-(difluoromethyl)-6-methylphenyl]-6-methoxy-2,5-dihydro-4H-pyrazolo[3,4-d]pyrimidin-4-one]	103	
> 30		Cc1cc(C2CC2)cc(C)c1-n1cc2c(=O)[nH]c(OCC(F)F)nc2n1 [Example 285, 2-(4-cyclopropyl-2,6-dimethylphenyl)-6-(2,2-difluoroethoxy)-2,5-dihydro-4H-pyrazolo[3,4-d]pyrimidin-4-one]	100	
> 30		Cc1cc(C2CC2)cc(C)c1-n1cc2c(=O)[nH]c(O[C@H]3CCOC3)nc2n1 [Example 286, 2-(4-cyclopropyl-2,6-dimethylphenyl)-6-{[(3S)-oxolan-3-yl]oxy}-2,5-dihydro-4H-pyrazolo [3,4-d]pyrimidin-4-one]	98	
> 30		Cc1nccc(-c2nc3nn(-c4c(C)cc(C5CC5)cc4C)cc3c(=O)[nH]2)n1 [Example 287, 2-(4-cyclopropyl-2,6-dimethylphenyl)-6-(2-methylpyrimidin-4-yl)-2,5-dihydro-4H-pyrazolo[3,4-d]pyrimidin-4-one]	99	
> 30		Cc1cc(C2CC2)cc(C)c1-n1cc2c(=O)[nH]c(OCCOC(F)F)nc2n1 [Example 288, 2-(4-cyclopropyl-2,6-dimethylphenyl)-6-[2-(difluoromethoxy)ethoxy]-2,5-dihydro-4H-pyrazolo[3,4-d]pyrimidin-4-one]	99	
	> 30	Cc1cc(C2CC2)cc(C)c1-n1cc2c(=O)[nH]c([C@@]3(F)CCOC3)nc2n1 [Example 289, 2-(4-cyclopropyl-2,6-dimethylphenyl)-6-[(3R)-3-fluorooxolan-3-yl]-2,5-dihydro-4H-pyrazolo[3,4-d]pyrimidin-4-one or 2-(4-cyclopropyl-2,6-dimethylphenyl)-6-[(3S)-3-fluorooxolan-3-yl]-2,5-dihydro-4H-pyrazolo[3,4-d]pyrimidin-4-one]		101
> 30		CCc1cc(C2CC2)cc(C)c1-n1cc2c(=O)[nH]c(COC(F)F)nc2n1 [Example 291, 2-(4-cyclopropyl-2-ethyl-6-methylphenyl)-6-[(difluoromethoxy)methyl]-2,5-dihydro-4H-pyrazolo[3,4-d]pyrimidin-4-one]	98	
